A value given as a limit tells only on which side of the number the result lay.

The assay deals with Complement factor D (Homo sapiens, UniProt P00746). Kind of assay: Factor D Assay: Human Factor D (purified from human serum, Complement Technology, Inc.) at 80 nM final concentration is incubated with test compound at various concentrations for 5 min at room temperature in 50 mM Tris, 1M NaCl, pH 7.5. A synthetic substrate Z-L-Lys-SBz and DTNB (Ellman's reagent) are added to final concentrations of 100 μM each. Absorbance at 405 nm (A405) is recorded at 30 second intervals for 30 min using a microplate spectrophotometer. IC50 values are calculated by nonlinear regression of complement Factor D reaction rates as a function of test compound concentration.
Complement factor D, sequence (P00746 whole entry): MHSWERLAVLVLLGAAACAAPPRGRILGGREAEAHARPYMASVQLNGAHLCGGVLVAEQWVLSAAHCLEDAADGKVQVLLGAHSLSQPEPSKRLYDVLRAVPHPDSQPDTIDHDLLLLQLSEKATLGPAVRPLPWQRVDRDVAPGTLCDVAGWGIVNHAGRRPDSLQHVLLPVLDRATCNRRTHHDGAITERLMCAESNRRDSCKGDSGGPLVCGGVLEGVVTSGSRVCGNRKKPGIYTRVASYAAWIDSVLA

Take `COc1cccc(CNC(=O)[C@@H]2C[C@@]3(C)C[C@H]3N2C(=O)Cn2nc(C(C)=O)c3cc(-c4cnc(C)nc4)cc(C)c32)c1`: the IC50 was less than 1000 nM.

As for `Cc1ncc(-c2cc(C)c3c(c2)c(C2COC2)nn3CC(=O)N2[C@H](C(=O)Nc3nc(Br)ccc3C)C[C@@]3(C)C[C@@H]23)cn1`, the IC50 is less than 1000 nM.

As to `CC(=O)c1nn(CC(=O)N2[C@H](C(=O)N[C@H](C)[C@H]3CC3(Cl)Cl)C[C@@]3(C)C[C@@H]23)c2cnc(-c3cnc(C)nc3)cc12`, the IC50 was less than 1000 nM.

On to `CC(=O)c1nn(CC(=O)N2[C@H](C(=O)Nc3nc(Br)ccc3C)C[C@@]3(CF)C[C@@H]23)c2c(C)cc(-c3cnc(C)nc3)cc12`, for which the IC50 is less than 1000 nM.

With `CC(=O)c1nn(CC(=O)N2[C@H](C(=O)Nc3nc(Br)ccc3C)C[C@@]3(CNCC(F)(F)F)C[C@@H]23)c2c(C)cc(-c3cnc(C)nc3)cc12`, the 50% inhibitory concentration (IC50) was less than 1000 nM.

For the compound `CC(=O)c1nn(CC(=O)N2[C@H](C(=O)Nc3nc(Br)ccc3C)C[C@@]3(C)C[C@@H]23)c2ccc(-c3cnc(O)nc3)cc12`, the half-inhibitory concentration (IC50) was less than 1000 nM.

As to `CC(=O)c1nn(CC(=O)N2[C@H](C(=O)Nc3nc(Br)ccc3C)C[C@@]3(C)C[C@@H]23)c2cnc(-c3ccc(C)nc3F)cc12`, the half-inhibitory concentration (IC50) was less than 1000 nM.

Take `C=CCNC(=O)c1nn(CC(=O)N2[C@H](C(=O)Nc3nc(Br)ccc3C)C[C@@]3(C)C[C@@H]23)c2ccc(-c3cnc(C)nc3)cc12`: the half-inhibitory concentration (IC50) was less than 1000 nM.

Turning to `CC(=O)c1nn(CC(=O)N2[C@H](C(=O)Nc3nc(Br)ccc3C)C[C@@]3(C)C[C@@H]23)c2c(C3CC3)nc(-c3cnc(C)nc3)cc12`, the IC50 was less than 1000 nM.

For the compound `CC(=O)c1nn(CC(=O)N2[C@H](C(=O)Nc3nc(Br)ccc3C)C[C@@]3(CNC4=NCCO4)C[C@@H]23)c2cnc(-c3cnc(C)nc3)cc12`, the IC50 is less than 1000 nM.

Turning to `CC(=O)c1nn(CC(=O)N2[C@H](C(=O)NCc3cncnc3)C[C@@]3(C)C[C@@H]23)c2c(C)cc(-c3cnc(C)nc3)cc12`, the half-inhibitory concentration (IC50) was less than 1000 nM.

Turning to `CC(=O)c1nn(CC(=O)N2[C@H](C(=O)NCc3ccccn3)C[C@@]3(C)C[C@@H]23)c2c(C)cc(-c3cnc(C)nc3)cc12`, the half-inhibitory concentration (IC50) is less than 1000 nM.

With `CCNC(=O)[C@@H]1C[C@@]2(C)C[C@H]2N1C(=O)Cn1nc(C(C)=O)c2cc(-c3cnc(C)nc3)cc(C)c21`, the half-maximal inhibitory concentration (IC50) was less than 1000 nM.

Consider `CC(=O)c1nn(CC(=O)N2[C@H](C(=O)Nc3nc(Br)ccc3C)C[C@@]3(CN(C)C)C[C@@H]23)c2cnc(-c3cnc(C)nc3)cc12`, for which the half-maximal inhibitory concentration (IC50) was less than 1000 nM.

As for `CC(=O)c1nn(CC(=O)N2[C@H](C(=O)Nc3nc(Br)ccc3C3COC(C)(C)O3)C[C@@]3(C)C[C@@H]23)c2cnc(-c3cnc(C)nc3)cc12` (stereo not given in full), the IC50 is less than 1000 nM.

For the compound `CC(=O)c1nn(CC(=O)N2[C@H](C(=O)N[C@H](C)c3ccccc3)C[C@@]3(C)C[C@@H]23)c2c(C)cc(-c3cnc(C)nc3)cc12`, the concentration for half-maximal inhibition (IC50) is less than 1000 nM.

Turning to `CC(=O)c1nn(CC(=O)N2[C@H](C(=O)Nc3nc(Br)ccc3CN3CCn4c(nnc4C(F)(F)F)C3)C[C@@]3(C)C[C@@H]23)c2cnc(-c3cnc(C)nc3)cc12`, the half-inhibitory concentration (IC50) is less than 1000 nM.

In the case of `CC(=O)c1nn(CC(=O)N2[C@H](C(=O)Nc3nc(Br)ccc3CCCF)C[C@@]3(C)C[C@@H]23)c2cnc(-c3cnc(C)nc3)cc12`, the IC50 is less than 1000 nM.

In the case of `CC(=O)c1nn(CC(=O)N2[C@H](C(=O)NCC3CC3)C[C@@]3(C)C[C@@H]23)c2c(C)cc(-c3cnc(C)nc3)cc12`, the half-maximal inhibitory concentration (IC50) is less than 1000 nM.

For `CC(=O)c1nn(CC(=O)N2[C@H](C(=O)Nc3nc(Br)ccc3C)C[C@@]3(C)C[C@@H]23)c2c(C)cc(-c3cnc(C4(F)COC4)nc3)cc12`, the 50% inhibitory concentration (IC50) was less than 1000 nM.

Consider `C=C[C@@]12C[C@@H](C(=O)Nc3nc(Br)ccc3Cc3nnc(CCCC)o3)N(C(=O)Cn3nc(C(C)=O)c4cc(-c5cnc(C)nc5)ncc43)[C@@H]1C2`, for which the IC50 was less than 1000 nM.

As to `CC(=O)c1nn(CC(=O)N2[C@H](C(=O)Nc3nc(C(F)(F)F)ccc3C)C[C@@]3(C)C[C@@H]23)c2cnc(-c3cnc(C)nc3)cc12`, the half-inhibitory concentration (IC50) was less than 1000 nM.

With `CC(=O)c1nn(CC(=O)N2[C@H](C(=O)Nc3nc(Br)ccc3C)C[C@@]3(CN4CC(O)C4)C[C@@H]23)c2cnc(-c3cnc(C)nc3)cc12`, the concentration for half-maximal inhibition (IC50) is less than 1000 nM.

Regarding `C#CC(C)NC(=O)c1nn(CC(=O)N2[C@H](C(=O)Nc3nc(Br)ccc3C)C[C@@]3(C)C[C@@H]23)c2ccc(-c3cnc(C)nc3)cc12` (stereo not given in full), the half-inhibitory concentration (IC50) was less than 1000 nM.

`CC(=O)c1nn(CC(=O)N2[C@H](C(=O)NCc3ccccc3C)C[C@@]3(C)C[C@@H]23)c2c(C)cc(-c3cnc(C)nc3)cc12`: the IC50 is less than 1000 nM.

Consider `CC(=O)c1nn(CC(=O)N2[C@H](C(=O)NCC(C)(C)C)C[C@@]3(C)C[C@@H]23)c2ccc(-c3cnc(C)nc3)cc12`, for which the IC50 was less than 1000 nM.

Turning to `Cc1ncc(-c2ccc3c(c2)c(C(=O)NC(C)C2CC2)nn3CC(=O)N2[C@H](C(=O)Nc3nc(Br)ccc3C)C[C@@]3(C)C[C@@H]23)cn1` (stereo not given in full), the 50% inhibitory concentration (IC50) is less than 1000 nM.

On to `Cc1ncc(-c2ccc3c(c2)c(C(=O)NC(C)(C)C)nn3CC(=O)N2[C@H](C(=O)Nc3nc(Br)ccc3C)C[C@@]3(C)C[C@@H]23)cn1`, for which the IC50 is greater than 10000 nM.

`CC(=O)c1nn(CC(=O)N2[C@H](C(=O)NCCN3CCCCC3)C[C@@]3(C)C[C@@H]23)c2c(C)cc(-c3cnc(C)nc3)cc12`: the IC50 was greater than 10000 nM.

Turning to `CC(=O)c1nn(CC(=O)N2[C@H](C(=O)Nc3nc(Br)ccc3C)C[C@@]3(CNCc4ccccc4)C[C@@H]23)c2c(C)cc(-c3cnc(C)nc3)cc12`, the IC50 was less than 1000 nM.

Regarding `CC(=O)c1nn(CC(=O)N2[C@H](C(=O)Nc3cccc(Br)n3)C[C@@]3(C)C[C@@H]23)c2ccc(-c3cnc(O)nc3)cc12`, the IC50 is less than 1000 nM.

Regarding `CC(=O)c1nn(CC(=O)N2[C@H](C(=O)Nc3cccc(-c4ccccc4Cl)c3F)C[C@@]3(C)C[C@@H]23)c2ccc(-c3cnc(C)nc3)cc12`, the IC50 is less than 1000 nM.

As to `CC(=O)c1nn(CC(=O)N2[C@H](C(=O)N[C@@H](C)C(F)=C(C)C)C[C@@]3(C)C[C@@H]23)c2cnc(-c3cnc(C)nc3)cc12`, the IC50 is less than 1000 nM.

Regarding `CC(=O)c1nn(CC(=O)N2[C@@H](C(=O)Nc3nc(Br)ccc3C)C[C@@]3(CC(C)C)C[C@@H]23)c2cnc(-c3cnc(C)nc3)cc12`, the IC50 is greater than 10000 nM.

For `CC(=O)c1nn(CC(=O)N2[C@H](C(=O)NCc3ccc(C)cc3)C[C@@]3(C)C[C@@H]23)c2c(C)cc(-c3cnc(C)nc3)cc12`, the half-inhibitory concentration (IC50) was less than 1000 nM.

On to `CC(=O)c1nn(CC(=O)N2[C@H](C(=O)Nc3nc(Br)ccc3C)C[C@@]3(C)C[C@@H]23)c2ccc(-c3cnc(CN4CCCC(F)(F)C4)nc3)cc12`, for which the half-maximal inhibitory concentration (IC50) is less than 1000 nM.

For the compound `C=CCCS(=O)(=O)NC[C@@]12C[C@@H](C(=O)Nc3nc(Br)ccc3C=C)N(C(=O)Cn3nc(C(C)=O)c4cc(-c5cnc(C)nc5)ccc43)[C@@H]1C2`, the half-maximal inhibitory concentration (IC50) is less than 1000 nM.

Regarding `CC(=O)c1nn(CC(=O)N2[C@H](C(=O)NCc3cccc(C)c3)C[C@@]3(C)C[C@@H]23)c2c(C)cc(-c3cnc(C)nc3)cc12`, the IC50 is less than 1000 nM.

In the case of `CC(=O)c1nn(CC(=O)N2[C@H](C(=O)Nc3nc(Br)ccc3C)C[C@@]3(CN(C)C)C[C@@H]23)c2c(C)nc(-c3cnc(C)nc3)cc12`, the half-inhibitory concentration (IC50) was less than 1000 nM.

With `CC(=O)c1nn(CC(=O)N2[C@H](C(=O)Nc3cc(C(=O)O)cc(Br)n3)C[C@@]3(C)C[C@@H]23)c2c(CN)cc(-c3cnc(C)nc3)cc12`, the IC50 was less than 1000 nM.

With `CCCCCCNC(=O)[C@@H]1C[C@@]2(C)C[C@H]2N1C(=O)Cn1nc(C(C)=O)c2cc(-c3cnc(C)nc3)cc(C)c21`, the half-inhibitory concentration (IC50) is less than 1000 nM.

Take `CC(=O)c1nn(CC(=O)N2[C@H](C(=O)Nc3nc(Br)ccc3C)C[C@@]3(C)C[C@@H]23)c2c(C)cc(-c3cnc(C4(O)COC4)nc3)cc12`: the IC50 was less than 1000 nM.

In the case of `CC(=O)c1nn(CC(=O)N2[C@H](C(=O)Nc3nc(Br)ccc3C)C[C@@]3(CC#N)C[C@@H]23)c2cnc(-c3cnc(C)nc3)cc12`, the concentration for half-maximal inhibition (IC50) is less than 1000 nM.

As to `CC(=O)c1nn(CC(=O)N2[C@H](C(=O)Nc3nc(C(F)(F)F)ccc3C)C[C@@]3(C)C[C@@H]23)c2c(C)nc(-c3cnc(C)nc3)cc12`, the IC50 is less than 1000 nM.

Turning to `CC(=O)c1nn(CC(=O)N2[C@H](C(=O)Nc3nc(Br)ccc3C3COC(=O)O3)C[C@@]3(C)C[C@@H]23)c2cnc(-c3cnc(C)nc3)cc12` (stereo not given in full), the half-maximal inhibitory concentration (IC50) was less than 1000 nM.

`CCCCCNC(=O)[C@@H]1C[C@@]2(C)C[C@H]2N1C(=O)Cn1nc(C(C)=O)c2cc(-c3cnc(C)nc3)cc(C)c21`: the IC50 was less than 1000 nM.

On to `Cc1ncc(-c2cc(C)c3c(c2)c(I)nn3CC(=O)N2[C@H](C(=O)Nc3nc(Br)ccc3C)C[C@@]3(C)C[C@@H]23)cn1`, for which the IC50 is less than 1000 nM.

On to `CC(=O)c1nn(CC(=O)N2[C@H](C(=O)Nc3cccc(Br)n3)C[C@@]3(C)C[C@@H]23)c2ccc(-c3cnc(OC4CS(=O)(=O)C4)nc3)cc12`, for which the IC50 is less than 1000 nM.

For the compound `Cc1ncc(-c2cc3c(C(C)O)nn(CC(=O)N4[C@H](C(=O)Nc5nc(Br)c(F)cc5C)C[C@@]5(C)C[C@@H]45)c3c(C)n2)cn1` (stereo not given in full), the half-maximal inhibitory concentration (IC50) is less than 1000 nM.

In the case of `CC(=O)c1nn(CC(=O)N2[C@H](C(=O)Nc3cc(F)cc(Br)n3)C[C@@]3(C)C[C@@H]23)c2c(C)nc(-c3cnc(C)nc3)cc12`, the IC50 is less than 1000 nM.

Regarding `CC(=O)c1nn(CC(=O)N2[C@H](C(=O)Nc3nc(Br)ccc3CN3CCC(C)(F)CC3)C[C@@]3(C)C[C@@H]23)c2cnc(-c3cnc(C)nc3)cc12`, the IC50 is less than 1000 nM.

For `CC(=O)c1nn(CC(=O)N2[C@H](C(=O)Nc3nc(Br)ccc3C)C[C@@]3(C)C[C@@H]23)c2ccc(-c3cnc(OC4CS(=O)(=O)C4)nc3)cc12`, the IC50 is less than 1000 nM.

In the case of `COCc1ncc(-c2cc3c(C(C)=O)nn(CC(=O)N4[C@H](C(=O)Nc5nc(Br)ccc5C)C[C@@]5(C)C[C@@H]45)c3cn2)cn1`, the IC50 is less than 1000 nM.

`CC(=O)c1nn(CC(=O)N2[C@H](C(=O)Nc3nc(Br)ccc3C)C[C@@]3(CC#N)C[C@@H]23)c2c(C)cc(-c3cnc(C)nc3)cc12`: the IC50 is less than 1000 nM.

`C=Cc1nn(CC(=O)N2[C@H](C(=O)Nc3nc(Br)ccc3C)C[C@@]3(C)C[C@@H]23)c2cnc(-c3cnc(C)nc3)cc12`: the IC50 was less than 1000 nM.

As a reminder, the IC50 is the concentration that inhibits the measured activity by half.

These data come from ChEMBL document CHEMBL5728630, “Aryl, heteroaryl, and heterocyclic pharmaceutical compounds for treatment of medical disorders” (2021).
